From patent US11433075B2, “Methods of treating glioblastoma” (TriAct Therapeutics, Inc., priority 2017, dated 2022)
Where two headings read alike, the source gives them in different places.

Experiments:
[1] = tested on: newly diagnosed GBM patients; assay: Phase I GBM study: safety, DLT, MTD, adverse events; format: in vivo, human
Procedure: Study Group 1 Treatment Cycles 4 weeks each (N=23)
Study Group 2 Treatment Cycles 10 weeks each (N=20)
No cytochrome P450-inducing anticonvulsants. However, Gliadel was permitted.
Group 1: TMZ (150-200 mg/m^2 given 5 days/month×6 cycles)—standard dose with BSI-201 starting at 5.1 mg/kg.
Group 2: TMZ (75 mg/m^2 daily 42 days on 30 days off×3 cycles)—metronomic dose with BSI-201 starting at 5.1 mg/kg.
Using modified continual reassessment method, MTD was defined for metronomic and standard dose TMZ. 6 dose levels were tested (lowest 5.1 mg/kg-highest 9.5 mg/kg IV 2×/wk). […] The DLTs across both groups were: rash (1), hypersensitivity reaction (1), fatigue (1) and a thromboembolic event (1). […] Phase 2 dose defined as 8 mg/kg IV 2×/wk with standard TMZ and 8.6 mg/kg IV 2×/wk with metronomic TMZ.

[2] = tested on: adult patients with newly diagnosed glioblastoma multiforme (GBM); assay: Phase II GBM trial (ABTC0703): overall survival; format: in vivo, human
Procedure: 76 patients were recruited for this study.
The following treatment schema (also see FIG. 2).
RT: 60 Gy (total) TMZ: Daily 75 mg/m^2
BSI-201: once per day, twice a week (8.0 mg/kg IV q2 wk)
Rest (4 weeks) with no treatment.
Maintenance Cycles 1-6 (4 weeks)
BSI-201: once per day, twice a week (8.6 mg/kg IV q2 wk)
(§1) For assessing the efficacy of the treatment in terms of overall survival, the overall failure rate were estimated and compared to the failure rate of 0.6 per-person year of follow-up regarding the Phase III trial done by Stupp et al. in the same patient population treated with RT plus concomitant and adjuvant temozolomide.
The primary endpoint was death due to all causes. The survival time is defined from time of histological diagnosis to death occurrence. The overall failure rate was expressed as hazard of failure per person-year of follow-up. The total patient population for this part of the study was defined as all patients who have met the eligibility criteria, not met ineligibility criteria, and signed patient informed consent.
It yield above 90% power to detect a 30% reduction in hazard rate with observed hazard ratio of 0.7 (0.42 vs. 0.6) at an alpha level of 0.1 to be significant. The overall failure rate was estimated by dividing the number of events (deaths) by the total exposure time in the study cohort along with 95% confidence intervals. Survival probability and median time of survival was calculated using Kaplan-Meier method.

[3] = human, in vivo, iv
Excerpt: It was a single arm, multi dose, dose escalating trial in newly diagnosed GBM patients. The total number of patients was 43, with about 5 patients per cohort. Patients who tolerated radiation (XRT) and temozolomide (TMZ) were recruited. Inclusion criteria included completion of XRT and TMZ without grade 3 or 4 toxicity and labs within acceptable range within 6 weeks of completing XRT. The end points included safety, maximum tolerated dose (MTD), and signal of activity.
The patients were separated into two study groups with the following treatment schema (also see FIG. 1).
Continuous Reassessment Method (CRM) was used to determine dose escalation. PK was drawn at cycle 1, 2, 3 and off treatment. PD via PBMCs was drawn at cycle 1, 2, 3 and off treatment. No cytochrome P450-inducing anticonvulsants. However, Gliadel was permitted.
Dosing is IV 2×/week continuous.

[4] = tested on: same patient population (newly diagnosed GBM); assay: EORTC Phase III trial, Stupp et al. 2005 (RT plus concomitant and adjuvant temozolomide); format: in vivo, human; details: 2005 n = 287, conversion
Excerpt: as §1

GBM patients = assay: RTOG 0525 trial, 2013 (STD and DD arms); format: in vivo, human; details: conversion
[5] = tested on: same patient population (newly diagnosed GBM); details: Stupp et al, 2005 (RT + temozolomide); cited from earlier work

With `NC(=O)c1ccc(I)c([N+](=O)[O-])c1` [Iniparib, 4-iodo-3-nitrobenzamide] the “Phase 2 dose” value ([1]; IV 2×/wk with metronomic TMZ) was 8.6 mg/kg, the “Phase 2 dose” value ([1]; IV 2×/wk with standard TMZ) was 8 mg/kg and the “DLT: fatigue (number)” value ([1]; human, in vivo) was 1. For the same compound, the “DLT: hypersensitivity reaction (number)” value ([1]; human, in vivo) was 1, the “DLT: rash (number)” value ([1]; human, in vivo) was 1 and the “DLT: thromboembolic event (number)” value ([1]; human, in vivo) was 1. The White counts decreased ([1]; human, in vivo) was 22 (51) No. (% of pts), the “Median Overall Survival, mOS, MGMT methylated” value ([2]; ABTC0703, n = 29) was 27 (n = 29) Months and the “Median Overall Survival, mOS, MGMT unmethylated” value ([2]; ABTC0703, n = 37) was 15.8 (n = 37) Months. For the same compound, the “Hazard Rate (per person year of follow-up)” value ([2]; ABTC0703 n = 76, hazard rate of death) was 0.403 per person year of follow-up, the “Median Overall Survival Months, (95% CI)” value ([2]; ABTC0703 n = 76, iniparib + RT + TMZ, then iniparib + TMZ maintenance) was 21.6 (16.1-23.7) Months and the “Comparison with RTOG 0525 (2013)” value ([2]; extrapolated and not pre-planned analysis) was “improved”. For the same compound, the “Reduction of HR versus Stupp et al 2005” value ([2]; single arm phase 2, efficacy endpoint met) was ≥ 25%.
`NC(=O)c1ccc(I)c(N)c1` [IABM] showed a Cmax ([3]; 5.1 mg/kg) of 5.7 ± 4.1 ng/mL, a Cmax ([3]; 6.1 mg/kg) of 7.2 ± 1.8 ng/mL and a Cmax ([3]; 6.8 mg/kg) of 8.4 ± 3.7 ng/mL. The Cmax ([3]; 8 mg/kg) was 10.3 ± 2.9 ng/mL, the Cmax ([3]; 8.6 mg/kg) was 9.7 ± 2.4 ng/mL and the Cmax ([3]; 9.5 mg/kg) was 13.6 ± 5.3 ng/mL.
For `Cn1nnc2c(C(N)=O)ncn2c1=O` [temozolomide], the “Hazard Rate (per person year of follow-up)” value [4] was 0.6 per person year of follow-up, the “Hazard Rate (per person year of follow-up)” value (GBM patients; RTOG 0525, 2013 DD arm, n = 422) was 0.558 per person year of follow-up and the “Hazard Rate (per person year of follow-up)” value (GBM patients; RTOG 0525, 2013 STD arm, n = 411) was 0.501 per person year of follow-up. For the same compound, the “Neutrophil Count Decreased” value [5] was 7%, the “Platelet Count Decreased” value [5] was 12% and the “White Blood Cell Decreased” value [5] was 7%.
